Measured values published in PMC11748363, “Antimicrobial and Antiproliferative Properties of 2‐Phenyl‐N‐(Pyridin‐2‐yl)acetamides” (Chemical Biology & Drug Design, 2025).
Converted amounts (≈) assume the structure as drawn. Read-outs that look alike come from different tables or passages of the source.

What was measured:
[1] = tested on: Mycobacterium tuberculosis H37Ra; assay: Antimycobacterial microdilution broth MIC (resazurin), Mtb H37Ra; assay type: cell-based; conditions: for MIC: Mycobacterium tuberculosis, H37RA, read-out: MIC Mtb H37Ra
[2] = tested on: Trichophyton interdigitale CCM 8377, ATCC 9533; assay: Antifungal microdilution broth MIC, TI; conditions: Trichophyton interdigitale
[3] = tested on: Enterococcus faecalis CCM 4224, ATCC 29212; assay: Antibacterial microdilution broth MIC, EF; assay type: cell-based
[4] = tested on: Klebsiella pneumoniae CCM 4415, ATCC 10031; assay: Antibacterial microdilution broth MIC, KP
[5] = tested on: Staphylococcus aureus subsp. aureus CCM 4750, ATCC 43300 (MRSA); assay: Antibacterial microdilution broth MIC, MRSA; assay type: cell-based
[6] = tested on: Mycolicibacterium aurum DSM 43999; assay: Antimycobacterial microdilution broth MIC (resazurin), M. aurum; assay type: cell-based; conditions: DSM43999, read-out: MIC M. aurum
[7] = tested on: Pseudomonas aeruginosa CCM 3955, ATCC 27853; assay: Antibacterial microdilution broth MIC, PA; assay type: cell-based
[8] = tested on: Mycolicibacterium smegmatis DSM 43465; assay: Antimycobacterial microdilution broth MIC (resazurin), M. smegmatis; assay type: cell-based; conditions: DSM43465, read-out: MIC M. smegmatis
[9] = tested on: Candida parapsilosis CCM 8260, ATCC 22019; assay: Antifungal microdilution broth MIC, CP; conditions: Lodderomyces parapsilosis
[10] = tested on: Staphylococcus aureus CCM 4223, ATCC 29213; assay: Antibacterial microdilution broth MIC, SA; assay type: cell-based
[11] = tested on: Candida albicans CCM 8320, ATCC 24433; assay: Antifungal microdilution broth MIC, CA
[12] = tested on: Candida tropicalis CCM 8264, ATCC 750; assay: Antifungal microdilution broth MIC, CT
[13] = tested on: Aspergillus flavus CCM 8363; assay: Antifungal microdilution broth MIC, AFla
[14] = tested on: Lichtheimia corymbifera CCM 8077; assay: Antifungal microdilution broth MIC, LC
[15] = tested on: Acinetobacter baumannii DSM 30007, ATCC 19606; assay: Antibacterial microdilution broth MIC, ACI; assay type: cell-based
HepG2 cell line = assay: Cytotoxicity CellTiter 96, HepG2; assay type: cell-based, human; conditions: Homo sapiens, HepG2, 24 h, 24 h incubation; ^c compound precipitated in the testing medium; ^d over the limit of tested concentrations
[16] = tested on: Aspergillus fumigatus ATCC 204305; assay: Antifungal microdilution broth MIC, AF
[17] = tested on: Staphylococcus epidermidis CCM 4418, ATCC 12228; assay: Antibacterial microdilution broth MIC, SE; assay type: cell-based
[18] = tested on: Escherichia coli CCM 3954, ATCC 25922; assay: Antibacterial microdilution broth MIC, EC; assay type: cell-based
[19] = tested on: Candida krusei CCM 8271, ATCC 6258; assay: Antifungal microdilution broth MIC, CK; conditions: Pichia kudriavzevii
[20] = CCM8363, 24 h, read-out: MIC AFla 24h
[21] = CCM8363, 48 h, read-out: MIC AFla 48h
[22] = CCM8077, 24 h, read-out: MIC LC 24h
[23] = CCM8077, 48 h, read-out: MIC LC 48h
[24] = ATCC204305, 24 h, read-out: MIC AF 24h
[25] = ATCC204305, 48 h, read-out: MIC AF 48h

Row | Structure (SMILES) | MIC ([1]; Calculated from MIC (μg/mL)) [µM] | MIC [1] [µg/mL] | MIC ([2]; 72 h, read-out: MIC TI 72h) [µM] | MIC ([2]; 120 h, read-out: MIC TI 120h) [µM] | MIC ([3]; 24 h, read-out: MIC EF 24h) [µM] | MIC ([3]; 48 h, read-out: MIC EF 48h) [µM] | MIC KP 24h [4] [µM] | MIC KP 48h [4] [µM] | MIC [6] [µg/mL] | MIC ([7]; 24 h, read-out: MIC PA 24h) [µM] | MIC ([7]; 48 h, read-out: MIC PA 48h) [µM] | MIC [8] [µg/mL] | MIC ([9]; 24 h, read-out: MIC CP 24h) [µM] | MIC ([9]; 48 h, read-out: MIC CP 48h) [µM] | MIC ([11]; 24 h, read-out: MIC CA 24h) [µM] | MIC ([11]; 48 h, read-out: MIC CA 48h) [µM] | MIC ([12]; 24 h, read-out: MIC CT 24h) [µM] | MIC ([12]; 48 h, read-out: MIC CT 48h) [µM] | MIC [13, 20] [µM] | MIC [13, 21] [µM] | further results
1 | COc1cccc(CC(=O)Nc2ccccn2)c1 [Compound 7, 2-(3-methoxyphenyl)-N-(pyridin-2-yl)acetamide] | 516 | 125 | > 125 | > 125 | > 125 | > 125 | > 125 | > 125 | 250 (≈ 1030 µM) | > 125 | > 125 | 250 (≈ 1030 µM) | > 125 | > 125 | > 125 | > 125 | > 125 | > 125 | > 125 | > 125 | MIC ([5]; Staphylococcus aureus, 24 h, read-out: MIC MRSA 24h): > 125 µM; MIC ([5]; Staphylococcus aureus, 48 h, read-out: MIC MRSA 48h): > 125 µM; MIC ([10]; Staphylococcus aureus, 24 h, read-out: MIC SA 24h): 125 µM (≈ 30.3 µg/mL); MIC ([10]; Staphylococcus aureus, 48 h, read-out: MIC SA 48h): 125 µM (≈ 30.3 µg/mL); MIC [14, 22]: > 125 µM; MIC [14, 23]: > 125 µM; MIC ([15]; 24 h, read-out: MIC ACI 24h): > 125 µM; MIC ([15]; 48 h, read-out: MIC ACI 48h): > 125 µM; IC50 (HepG2 cell line): > 500 µM; MIC [16, 24]: > 125 µM; MIC [16, 25]: > 125 µM; MIC ([17]; 24 h, read-out: MIC SE 24h): > 125 µM; MIC ([17]; 48 h, read-out: MIC SE 48h): > 125 µM; MIC ([18]; 24 h, read-out: MIC EC 24h): > 125 µM; MIC ([18]; 48 h, read-out: MIC EC 48h): > 125 µM; MIC ([19]; 24 h, read-out: MIC CK 24h): > 125 µM; MIC ([19]; 48 h, read-out: MIC CK 48h): > 125 µM
2 | COc1cccc(CC(=O)Nc2ccc(Cl)cn2)c1 [Compound 8, 2-(3-methoxyphenyl)-N-(5-chloropyridin-2-yl)acetamide] | 113 | 31.2 | 500 (≈ 138 µg/mL) | 500 (≈ 138 µg/mL) | > 500 | > 500 | > 500 | > 500 | > 500 | > 500 | > 500 | > 500 | > 500 | > 500 | > 500 | > 500 | > 500 | > 500 | 500 (≈ 138 µg/mL) | 500 (≈ 138 µg/mL) | SI (selectivity index) ([1]; SI = HepG2 IC50 (μM)/MIC MtbH37Ra (μM), calculated for compounds with MIC ≤ 31.25 μg/mL): 1.4; MIC ([5]; Staphylococcus aureus, 24 h; read-out: MIC MRSA 24h): > 500 µM; MIC ([5]; Staphylococcus aureus, 48 h; read-out: MIC MRSA 48h): > 500 µM; MIC ([10]; Staphylococcus aureus, 24 h; read-out: MIC SA 24h): 500 µM (≈ 138 µg/mL); MIC ([10]; Staphylococcus aureus, 48 h; read-out: MIC SA 48h): > 500 µM; MIC [14, 22]: 500 µM (≈ 138 µg/mL); MIC [14, 23]: 500 µM (≈ 138 µg/mL); MIC ([15]; 24 h, read-out: MIC ACI 24h): > 500 µM; MIC ([15]; 48 h, read-out: MIC ACI 48h): > 500 µM; IC50 (HepG2 cell line): 158 µM; MIC [16, 24]: > 500 µM; MIC [16, 25]: > 500 µM; MIC ([17]; 24 h, read-out: MIC SE 24h): 250 µM (≈ 69.2 µg/mL); MIC ([17]; 48 h, read-out: MIC SE 48h): > 500 µM; MIC ([18]; 24 h, read-out: MIC EC 24h): > 500 µM; MIC ([18]; 48 h, read-out: MIC EC 48h): > 500 µM; MIC ([19]; 24 h, read-out: MIC CK 24h): 500 µM (≈ 138 µg/mL); MIC ([19]; 48 h, read-out: MIC CK 48h): 500 µM (≈ 138 µg/mL)
